14 compounds from US9096560B2, “5-heterocyclylalkyl-3-hydroxy-2-phenylcyclopent-2-enones as herbicides” (Syngenta Limited, priority 2008, dated 2015) can be followed below.

The structures appear in SMILES notation.

Common to all, as to type: in vivo
For assay [1], the system named is Avena fatua (AVEFA). Put plainly: Example B post-emergence herbicidal test, AVEFA. To be noted: Avena fatua, 312 h, rate 250 g/ha, evaluated after 13 days, scale 0-100, read-out: Post-emergence activity AVEFA (100=total damage to plant; 0=no damage to plant). Summed up:
(§1)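 Foliar application to 8-day-old pot-grown seedlings in a glasshouse (24/16 °C, 14 h photoperiod, 65% humidity). Spray solution was derived from an acetone/water (50:50) formulation with 0.5% Tween 20. Injury was assessed 13 days later on a 0–100 scale.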

Assay [2] deals with Echinochloa crus-galli (ECHCG). Put plainly: Example B pre-emergence herbicidal test, ECHCG. To be noted: Echinochloa crus-galli, 312 h, rate 250 g/ha, evaluated after 13 days, 100=total damage to plant, 0=no damage to plant. An outline of the steps: (§2)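 After sowing in standard soil, pots spent a day in the glasshouse (24/16° C, 14 h photoperiod, 65% humidity) before spraying with compound in acetone/water 50:50 with 0.5% Tween 20. Watering followed twice a day, and plants were evaluated 13 days on, with 100 meaning complete damage.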

Assay [3] concerns Lolium perenne (LOLPE). Put plainly: Example B pre-emergence herbicidal test, LOLPE. Particulars: Lolium perenne, 312 h, rate 250 g/ha, evaluated after 13 days, 100=total damage to plant, 0=no damage to plant. Summed up:
as §2

Assay [4] has as its system Alopecurus myosuroides (ALOMY). Put plainly: Example B pre-emergence herbicidal test, ALOMY. Particulars: Alopecurus myosuroides, 312 h, rate 250 g/ha, evaluated after 13 days, 100=total damage to plant, 0=no damage to plant. An outline of the steps:
as §2

In assay [5] the test system is Alopecurus myosuroides (ALOMY). Put plainly: Example B post-emergence herbicidal test, ALOMY. Particulars: Alopecurus myosuroides, 312 h, rate 250 g/ha, evaluated after 13 days, scale 0-100, read-out: Post-emergence activity ALOMY (100=total damage to plant; 0=no damage to plant). Summed up:
as §1

Assay [6] concerns Avena fatua (AVEFA). Put plainly: Example B pre-emergence herbicidal test, AVEFA. Particulars: Avena fatua, 312 h, rate 250 g/ha, evaluated after 13 days, 100=total damage to plant, 0=no damage to plant. An outline of the steps: as §2
Assay [7] relates to Lolium perenne (LOLPE). Put plainly: Example B post-emergence herbicidal test, LOLPE. Particulars: Lolium perenne, 312 h, rate 250 g/ha, evaluated after 13 days, scale 0-100, read-out: Post-emergence activity LOLPE (100=total damage to plant; 0=no damage to plant). An outline of the steps: as §1
The test system of assay [8] is Echinochloa crus-galli (ECHCG). Put plainly: Example B post-emergence herbicidal test, ECHCG. Particulars: Echinochloa crus-galli, 312 h, rate 250 g/ha, evaluated after 13 days, scale 0-100, read-out: Post-emergence activity ECHCG (100=total damage to plant; 0=no damage to plant). Summed up: as §1

For `CCc1cc(C)cc(C)c1C1C(=O)CC(CCC2CCOCC2)C1=O` (stereo not shown) [Compound T58], the pest or weed control at 250 g/ha with Avena fatua (AVEFA) [1] was 90%; in assay [2] it was 100%; in the assay with Lolium perenne (LOLPE) [3], 100%; in assay [4] it was 90%; in assay [5] it was 100%; in the assay on Avena fatua (AVEFA) [6], 90%. Also, the pest or weed control at 250 g/ha in the assay on Lolium perenne (LOLPE) [7] came to 90%; in assay [8], 100%.
Regarding `CCc1cc(C)cc(C)c1C1C(=O)C/C(=C\C2CCOC2)C1=O` (stereo not shown) [Compound T59], the pest or weed control at 250 g/ha in the assay with Avena fatua (AVEFA) [1] was 100%; in assay [2], 100%; with Lolium perenne (LOLPE) [3], 100%; in assay [4] it was 90%; in assay [5] it was 90%; in the assay on Avena fatua (AVEFA) [6] it was 90%. Besides, the pest or weed control at 250 g/ha with Lolium perenne (LOLPE) [7] was 100%; in assay [8], 90%.
In the case of `Cc1cc(C)c(C2C(=O)CC(CC3CCN(c4ccc(Cl)cc4)CC3)C2=O)c(C)c1` (stereo not shown) [Compound T60], the pest or weed control at 250 g/ha amounted to 10% in the assay with Avena fatua (AVEFA) [1]; 0% in assay [2]; 10% in the assay with Lolium perenne (LOLPE) [3]; 10% in assay [4]; 30% in assay [5]; 0% in the assay with Avena fatua (AVEFA) [6]. The values for the pest or weed control at 250 g/ha (with Lolium perenne (LOLPE) [7]; in assay [8]) were 20% and 10%, respectively.
Regarding `Cc1cc(-c2ccc(F)cc2)cc(C)c1C1C(=O)C/C(=C\C2CCOCC2)C1=O` (stereo not shown) [Compound T61], the pest or weed control at 250 g/ha with Avena fatua (AVEFA) [1] stood at 100%; in assay [2] it was 90%; in the assay with Lolium perenne (LOLPE) [3] it was 90%; in assay [4], 70%; in assay [5], 90%; in the assay on Avena fatua (AVEFA) [6], 80%. Besides, the results for the pest or weed control at 250 g/ha (in the assay on Lolium perenne (LOLPE) [7]; in assay [8]) were 90% and 100%, respectively.
For the compound `Cc1cc(-c2ccc(F)cc2)cc(C)c1C1C(=O)CC(CC2CCOCC2)C1=O` (stereo not shown) [Compound T63], the pest or weed control at 250 g/ha turned out to be 100% in the assay with Avena fatua (AVEFA) [1]; 100% in assay [2]; 100% in the assay with Lolium perenne (LOLPE) [3]; 70% in assay [4]; 90% in assay [5]; 90% with Avena fatua (AVEFA) [6]. Moreover, the pest or weed control at 250 g/ha (in the assay with Lolium perenne (LOLPE) [7]; in assay [8]) was 90% throughout.
With `Cc1cc(-c2ccc(F)c(Cl)c2)cc(C)c1C1C(=O)C/C(=C\C2CCOCC2)C1=O` (stereo not shown) [Compound T65], the pest or weed control at 250 g/ha stood at 100% with Avena fatua (AVEFA) [1]; 100% in assay [2]; 80% in the assay on Lolium perenne (LOLPE) [3]; 70% in assay [4]; 90% in assay [5]; 80% with Avena fatua (AVEFA) [6]. Further, the pest or weed control at 250 g/ha in the assay on Lolium perenne (LOLPE) [7] is 90%; in assay [8], 100%.
As to `Cc1cc(C)c(C2C(=O)CC(CC3CCN(C(=O)Oc4ccccc4)CC3)C2=O)c(C)c1` (stereo not shown) [Compound T68], the pest or weed control at 250 g/ha in the assay with Avena fatua (AVEFA) [1] is 90%; in assay [2] it was 50%; with Lolium perenne (LOLPE) [3], 90%; in assay [4], 30%; in assay [5] it was 60%; in the assay with Avena fatua (AVEFA) [6], 40%. The pest or weed control at 250 g/ha (in the assay on Lolium perenne (LOLPE) [7]; in assay [8]) was 90% throughout.
`CCCCOC(=O)N1CCC(CC2CC(=O)C(c3c(C)cc(C)cc3C)C2=O)CC1` (stereo not shown) [Compound T69]: the pest or weed control at 250 g/ha was determined as 30% with Avena fatua (AVEFA) [1]; 20% in assay [2]; 10% with Lolium perenne (LOLPE) [3]; 0% in assay [4]; 30% in assay [5]; 10% in the assay on Avena fatua (AVEFA) [6]. Also, the pest or weed control at 250 g/ha in the assay with Lolium perenne (LOLPE) [7] was 30%; in assay [8] it was 20%.
`Cc1cc(C)c(C2C(=O)CC(CC3CCN(C(=O)c4ccccc4)CC3)C2=O)c(C)c1` (stereo not shown) [Compound T70]: the pest or weed control at 250 g/ha was found to be 100% in the assay on Avena fatua (AVEFA) [1]; 60% in assay [2]; 70% in the assay on Lolium perenne (LOLPE) [3]; 20% in assay [4]; 70% in assay [5]; 70% with Avena fatua (AVEFA) [6]. For the same compound, the pest or weed control at 250 g/ha (in the assay with Lolium perenne (LOLPE) [7]; in assay [8]) was 80% in each case.
In the case of `Cc1cc(C)c(C2C(=O)CC(CC3CCN(C(=O)c4ccc(Cl)cc4Cl)CC3)C2=O)c(C)c1` (stereo not shown) [Compound T71], the pest or weed control at 250 g/ha was 80% in the assay on Avena fatua (AVEFA) [1]; 10% in assay [2]; 30% in the assay with Lolium perenne (LOLPE) [3]; 20% in assay [4]; 30% in assay [5]; 20% in the assay on Avena fatua (AVEFA) [6]. Moreover, the pest or weed control at 250 g/ha in the assay on Lolium perenne (LOLPE) [7] is 40%; in assay [8], 70%.
`Cc1cc(C)c(C2C(=O)CC(CC3CCN(C(=O)c4ccccc4C)CC3)C2=O)c(C)c1` (stereo not shown) [Compound T72]: the pest or weed control at 250 g/ha is 80% in the assay on Avena fatua (AVEFA) [1]; 80% in assay [2]; 60% in the assay with Lolium perenne (LOLPE) [3]; 30% in assay [4]; 50% in assay [5]; 20% with Avena fatua (AVEFA) [6]. Further, the figures for the pest or weed control at 250 g/ha (with Lolium perenne (LOLPE) [7]; in assay [8]) were 80% and 90%, respectively.
`Cc1cc(C)c(C2C(=O)CC(CC3CCN(C(=O)c4cccc(Cl)c4)CC3)C2=O)c(C)c1` (stereo not shown) [Compound T73]: the pest or weed control at 250 g/ha in the assay on Avena fatua (AVEFA) [1] was determined as 100%; in assay [2], 80%; with Lolium perenne (LOLPE) [3], 80%; in assay [4] it was 40%; in assay [5], 90%; in the assay on Avena fatua (AVEFA) [6], 80%. The pest or weed control at 250 g/ha with Lolium perenne (LOLPE) [7] came out at 80%; in assay [8] it was 90%.
On to `Cc1cc(C)c(C2C(=O)CC(CC3CCN(C(=O)c4ccc(Cl)c(Cl)c4)CC3)C2=O)c(C)c1` (stereo not shown) [Compound T74], for which the pest or weed control at 250 g/ha in the assay with Avena fatua (AVEFA) [1] came out at 90%; in assay [2], 50%; in the assay on Lolium perenne (LOLPE) [3], 30%; in assay [4] it was 30%; in assay [5] it was 70%; in the assay on Avena fatua (AVEFA) [6], 20%. Moreover, the pest or weed control at 250 g/ha in the assay on Lolium perenne (LOLPE) [7] was determined as 40%; in assay [8] it was 100%.
For the compound `Cc1cc(C)c(C2C(=O)CC(CC3CCN(C(=O)c4ccc(Cl)cc4)CC3)C2=O)c(C)c1` (stereo not shown) [Compound T76], the pest or weed control at 250 g/ha in the assay with Avena fatua (AVEFA) [1] is 100%; in assay [2] it was 60%; in the assay on Lolium perenne (LOLPE) [3], 60%; in assay [4] it was 30%; in assay [5], 90%; in the assay with Avena fatua (AVEFA) [6], 20%. Also, the pest or weed control at 250 g/ha was determined as 40% in the assay on Lolium perenne (LOLPE) [7] and 90% in assay [8].
